How the values were obtained:
RS4-11 = experiment: Anticancer activity against human RS4-11 cells assessed as cell viability incubated for 3 days by CellTiterGlo assay; type: functional, cell-based; details: RS4-11, 72 h
Protein Mdm4 = biological target: T1, Protein Mdm4 (Homo sapiens, UniProt O15151); experiment: Inhibition of human MDM4 (1 to 116 residues) incubated for 1 hrs by fluorescence polarization assay
T1 sequence (O15151 whole entry): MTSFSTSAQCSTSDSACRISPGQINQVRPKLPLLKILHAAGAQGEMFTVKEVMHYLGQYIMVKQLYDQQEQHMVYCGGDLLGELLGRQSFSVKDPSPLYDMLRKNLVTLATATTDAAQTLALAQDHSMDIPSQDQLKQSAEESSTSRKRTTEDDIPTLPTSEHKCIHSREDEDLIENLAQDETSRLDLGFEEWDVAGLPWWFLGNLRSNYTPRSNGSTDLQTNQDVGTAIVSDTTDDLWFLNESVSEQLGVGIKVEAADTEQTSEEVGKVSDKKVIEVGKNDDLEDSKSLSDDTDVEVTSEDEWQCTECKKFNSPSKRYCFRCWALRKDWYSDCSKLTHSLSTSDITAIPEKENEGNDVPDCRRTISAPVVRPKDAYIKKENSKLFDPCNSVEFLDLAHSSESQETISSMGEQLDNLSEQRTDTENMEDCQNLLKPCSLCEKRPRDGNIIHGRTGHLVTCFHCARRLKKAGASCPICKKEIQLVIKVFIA

[1] = biological target: T2, E3 ubiquitin-protein ligase Mdm2 (Homo sapiens, UniProt Q00987); experiment: Inhibition of human MDM2 incubated for 1 hrs by TR-FRET assay
T2 sequence (Q00987 whole entry): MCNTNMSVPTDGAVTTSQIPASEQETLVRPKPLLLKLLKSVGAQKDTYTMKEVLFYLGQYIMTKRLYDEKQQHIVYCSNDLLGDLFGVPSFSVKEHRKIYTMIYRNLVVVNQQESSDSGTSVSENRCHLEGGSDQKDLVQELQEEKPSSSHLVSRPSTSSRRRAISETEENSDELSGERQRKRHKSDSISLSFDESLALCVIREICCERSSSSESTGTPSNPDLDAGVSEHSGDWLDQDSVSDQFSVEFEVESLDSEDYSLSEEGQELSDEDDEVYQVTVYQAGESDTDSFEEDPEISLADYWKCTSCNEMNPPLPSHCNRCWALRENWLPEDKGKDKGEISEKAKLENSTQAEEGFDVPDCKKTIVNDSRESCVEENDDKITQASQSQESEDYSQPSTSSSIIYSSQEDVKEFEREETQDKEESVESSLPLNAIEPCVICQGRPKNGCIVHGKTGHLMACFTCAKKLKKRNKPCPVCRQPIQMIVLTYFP

[2] = biological target: Tumour suppressor p53/oncoprotein Mdm2 (Homo sapiens, UniProt Q00987); experiment: Inhibition of human MDM2 to p53 (unknown origin) protein protein interaction; type: protein assay
Tumour suppressor p53/oncoprotein Mdm2, sequence (P04637 whole entry, the tested form may be a part): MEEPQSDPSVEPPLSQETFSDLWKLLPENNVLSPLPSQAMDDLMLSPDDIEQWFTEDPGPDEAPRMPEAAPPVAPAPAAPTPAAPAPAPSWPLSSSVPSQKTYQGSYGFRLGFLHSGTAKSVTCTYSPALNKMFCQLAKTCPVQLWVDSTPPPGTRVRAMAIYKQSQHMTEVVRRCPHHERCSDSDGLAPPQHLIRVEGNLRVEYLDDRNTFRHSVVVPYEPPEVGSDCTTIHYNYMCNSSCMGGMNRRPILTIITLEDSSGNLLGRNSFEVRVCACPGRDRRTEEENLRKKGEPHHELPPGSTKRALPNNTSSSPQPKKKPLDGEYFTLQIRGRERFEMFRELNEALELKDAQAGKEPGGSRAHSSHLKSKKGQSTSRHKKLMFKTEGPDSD
Tumour suppressor p53/oncoprotein Mdm2, sequence (Q00987 whole entry, the tested form may be a part): as the sequence (Q00987 whole entry) above

[3] = biological target: T2, E3 ubiquitin-protein ligase Mdm2; experiment: Displacement of FAM labeled p53 fragment from human MDM2 (1 to 116 residues) incubated for 1 hrs by fluorescence polarization assay
[4] = Displacement of FAM labeled PMI from human MDM2 (1 to 114 residues) by fluorescence polarization assay

| IC50 (RS4-11) [nM] | IC50 (Protein Mdm4) [nM] | IC50 [1] [nM] | IC50 [2] [nM] | IC50 [3] [nM] | IC50 [4] [nM] | Compound |
| --- | --- | --- | --- | --- | --- | --- |
| > 50000 | 43 | 43 |  |  |  | CC(C)[C@@H]1NC(=O)Cn2cc(nn2)C[C@@H](C(N)=O)NC(=O)[C@@H]2C[C@@H](CN2C(=O)c2ccccc2)NC(=O)[C@H](Cc2cccc(C(F)(F)F)c2)NC(=O)[C@@H](C(C)C)CNC(=O)CNC(=O)[C@H](Cc2ccccc2)NC(=O)[C@H](Cc2c[nH]c3ccccc23)NC1=O |
| > 50000 | 9 | 9 | 8.9 |  |  | CC(C)[C@@H]1NC(=O)Cn2cc(nn2)C[C@H](C(N)=O)NC(=O)[C@@H]2C[C@@H](CN2C(=O)c2ccccc2)NC(=O)[C@H](Cc2cccc(C(F)(F)F)c2)NC(=O)[C@@H](C(C)C)CNC(=O)CNC(=O)[C@H](Cc2ccccc2)NC(=O)[C@H](Cc2c[nH]c3ccccc23)NC1=O |
|  |  |  |  | 90 | 2000 | CC(C)[C@@H]1NC(=O)Cn2cc(nn2)CC(C(N)=O)NC(=O)[C@@H]2C[C@@H](CN2C(=O)c2ccccc2)NC(=O)[C@H](Cc2cccc(C(F)(F)F)c2)NC(=O)[C@@H](C(C)C)CNC(=O)CNC(=O)[C@H](Cc2ccccc2)NC(=O)[C@H](Cc2c[nH]c3ccccc23)NC1=O (stereo partly specified) |
|  |  |  |  | 8100 | 16900 | CC[C@H](C)[C@@H]1NC(=O)[C@H](C(C)C)NC(=O)Cn2cc(nn2)CC(C(N)=O)NC(=O)[C@@H](Cc2ccsc2)NC(=O)[C@H](Cc2ccc(Cl)cc2)NC(=O)C[C@@H](C(=O)O)NC(=O)[C@H](CCSC)NC(=O)[C@H](CC(=O)O)NC1=O (stereo partly specified) |
